Values quoted from earlier work, collected in patent publication US10869938B2, “Magnetic resonance imaging” (1C TARGETS AS, priority 2007, dated 2020).
Read-outs that look alike come from different tables or passages of the source.

Tested on: healthy myocardial cells
Conditions: healthy individuals

## Cc1ncc(COP(=O)(O)O)c(CN(CCN(CC(=O)[O-])Cc2c(COP(=O)(O)O)cnc(C)c2O)CC(=O)[O-])c1O.[Mn+2] [MnDPDP, manganese (II) chelate of N,N′-bis-(pyridoxal-5-phosphate)-ethylenediamine-N,N′-diacetic acid]
5 minute infusion
  manganese tissue concentration versus time curve: biphasic curve
30 minute infusion
  manganese tissue concentration versus time curve: increased steadily
